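Grown in 96-well plates, cells were treated for 48 hours with each compound at five concentrations. Insufficient inhibition: endpoint recorded as highest concentration tested. At the GI50, growth is halved.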 Calls of active or inactive are those of the source. Rule as the data show it: active = GI50 up to about 1.1 µM and inactive = higher. Peptide text beside a SMILES is read from it.
Columns and labels:
Experiment in all cases: NCI-60 cell line screen, 48 h
[1] = test system: MCF7
[2] = test system: NCI/ADR-RES
[3] = test system: CCRF-CEM
[4] = test system: SK-OV-3
[5] = test system: BT-549
[6] = test system: SNB-75
[7] = test system: IGROV-1
[8] = test system: HOP-92
[9] = test system: OVCAR-8
[10] = test system: OVCAR-3
[11] = test system: SR
[12] = test system: SF-539
[13] = test system: EKVX
[14] = test system: MOLT-4
[15] = test system: PC-3
[16] = test system: NCI-H23
[17] = test system: HL-60
[18] = test system: A549
[19] = test system: SW-620
[20] = test system: HCC 2998

Measured: GI50

Cc1nc(O)c(O)c(CN2CCCCC2)n1
inactive: [1] > 100 µM | [2] > 100 µM | [3] > 100 µM | [4] > 100 µM | [5] > 100 µM | [6] > 100 µM | [7] > 100 µM | [8] > 100 µM | [9] > 100 µM | [10] > 100 µM | [11] > 100 µM | [12] > 100 µM | [13] > 100 µM | [14] > 100 µM | [15] > 100 µM | [16] > 100 µM | [17] 42.7 µM | [18] > 100 µM | [19] > 100 µM

NN/C(=N\S(=O)(=O)c1cc2ccccc2s1)Nc1ccc(Cl)cc1
inactive: [1] 20.2 µM | [2] 20 µM | [4] 34.9 µM | [5] 18.9 µM | [6] 20.6 µM | [7] 17.3 µM | [8] 19 µM | [9] 22.4 µM | [10] 18.9 µM | [11] 40.1 µM | [12] 16.1 µM | [13] 19.2 µM | [14] 18.9 µM | [15] 22.2 µM | [16] 20.3 µM | [17] 22.4 µM | [18] 19.4 µM | [19] 23.1 µM

Cc1ccc(/C=N/NC2=NCCN2)s1
inactive: [1] > 100 µM | [2] > 100 µM | [4] > 100 µM | [20] > 100 µM | [5] 23.3 µM | [6] > 100 µM | [7] > 100 µM | [8] > 100 µM | [9] > 100 µM | [10] > 100 µM | [12] > 100 µM | [13] > 100 µM | [14] > 100 µM | [15] > 100 µM | [16] > 100 µM | [17] > 100 µM | [18] > 100 µM | [19] > 100 µM

c1ccc(-c2cc(-c3cc(-c4ccccc4)[nH]n3)[nH]n2)cc1
inactive: [1] > 100 µM | [2] > 100 µM | [3] > 100 µM | [4] > 100 µM | [20] > 100 µM | [5] > 100 µM | [6] > 100 µM | [7] > 100 µM | [9] > 100 µM | [10] > 100 µM | [11] > 100 µM | [12] > 100 µM | [13] > 100 µM | [14] > 100 µM | [15] > 100 µM | [16] > 100 µM | [18] > 100 µM

CCCCCN1C(=O)C(Cc2ccccc2)N=C(c2ccc(O)cc2)c2cc(Cl)ccc21 (stereo unspecified)
inactive: [1] 9.98 µM | [2] 8.11 µM | [3] 12.2 µM | [4] 18.6 µM | [5] 17.4 µM | [6] 4.61 µM | [7] 6.73 µM | [8] 10.7 µM | [9] 8.87 µM | [10] 17.3 µM | [11] 2.97 µM | [12] 22.2 µM | [13] 8.41 µM | [14] 4.09 µM | [15] 6.21 µM | [16] 4.98 µM | [17] 2.98 µM | [18] 13.6 µM | [19] 10.9 µM

C/C(=N/NC(N)=S)c1ccc[nH]1
inactive: [1] > 100 µM | [2] > 100 µM | [3] > 100 µM | [4] > 100 µM | [20] > 100 µM | [5] > 100 µM | [6] > 100 µM | [7] > 100 µM | [8] > 100 µM | [9] > 100 µM | [10] > 100 µM | [12] > 100 µM | [13] > 100 µM | [14] > 100 µM | [15] > 100 µM | [16] > 100 µM | [17] > 100 µM | [18] > 100 µM | [19] > 100 µM

COc1ccc(Nc2nn3c(=O)c4c(C)c(C)sc4nc3s2)cc1
inactive: [1] 34.8 µM | [2] 39.1 µM | [3] 31.6 µM | [4] 26.6 µM | [5] > 100 µM | [6] 22.7 µM | [7] 42.2 µM | [8] 27.3 µM | [9] 49.1 µM | [10] 29.1 µM | [11] 9.84 µM | [12] 33 µM | [14] 43.2 µM | [15] 36.1 µM | [16] 18.7 µM | [17] 97.5 µM | [18] 18.6 µM | [19] 55.7 µM

CC1(C)Cc2c(sc3[nH]c(=S)[nH]c(=S)c23)CS1
inactive: [1] 32.8 µM | [2] 43.4 µM | [3] 29.4 µM | [4] 27.7 µM | [5] 46.3 µM | [7] 29.9 µM | [8] 12.4 µM | [9] 90.2 µM | [10] 26.2 µM | [11] 48.6 µM | [12] 37.9 µM | [14] 43 µM | [15] 25.4 µM | [16] 55.3 µM | [17] 33.2 µM | [18] 59.2 µM | [19] 53.1 µM

O=C(CSCC(=O)N/N=C/c1ccc2c(c1)OCO2)N/N=C/c1ccc2c(c1)OCO2
inactive: [1] 63 µM | [2] > 100 µM | [3] 82.2 µM | [4] > 100 µM | [20] > 100 µM | [5] > 100 µM | [6] > 100 µM | [7] > 100 µM | [8] > 100 µM | [9] 49 µM | [10] > 100 µM | [12] > 100 µM | [13] 55.8 µM | [14] 21.5 µM | [15] 40.6 µM | [16] 27 µM | [17] 58.9 µM | [18] 91.4 µM | [19] > 100 µM

O=S(=O)(O)C(Cc1nc2ccccc2[nH]1)S(=O)(=O)OCCC1S(=O)(=O)OCCOS1(=O)=O (stereo unspecified)
inactive: [1] > 100 µM | [2] > 100 µM | [3] > 100 µM | [4] > 100 µM | [20] > 100 µM | [5] > 100 µM | [6] > 100 µM | [7] > 100 µM | [8] > 100 µM | [9] > 100 µM | [10] > 100 µM | [12] > 100 µM | [13] > 100 µM | [14] > 100 µM | [15] > 100 µM | [16] > 100 µM | [17] > 100 µM | [18] > 100 µM | [19] > 100 µM

Clc1ccc(OCc2nnc(CCCCCCCCc3nnc(COc4ccc(Cl)cc4Cl)n3Nc3ccccc3)n2Nc2ccccc2)c(Cl)c1
inactive: [1] 7.06 µM | [2] 11.9 µM | [4] 11.5 µM | [20] 7.21 µM | [5] 17.9 µM | [6] 23 µM | [7] 13 µM | [8] 17.4 µM | [9] 17.4 µM | [10] 12 µM | [12] 11.4 µM | [13] 19 µM | [14] 22.7 µM | [15] 3.07 µM | [16] 15.1 µM | [18] 8.77 µM | [19] 12.7 µM

Nc1c(S(=O)(=O)O)cc(Nc2cccc(S(N)(=O)=O)c2)c2c1C(=O)c1ccccc1C2=O
inactive: [1] > 100 µM | [2] > 100 µM | [3] > 100 µM | [4] 27.5 µM | [5] > 100 µM | [6] 29.6 µM | [7] > 100 µM | [8] > 100 µM | [9] > 100 µM | [10] 83.9 µM | [11] > 100 µM | [12] > 100 µM | [13] 57 µM | [14] > 100 µM | [15] > 100 µM | [16] 35.1 µM | [17] > 100 µM | [18] > 100 µM | [19] 74.5 µM

CC(=O)NC(CS)C(=O)NC(CO)C(=O)NC(CO)C(=O)NC(Cc1c[nH]c2ccccc12)C(=O)N1CCCC1C(=O)NC(CO)C(=O)NC(Cc1c[nH]c2ccccc12)C(=O)NC(Cc1c[nH]cn1)C(=O)NC(CO)C(=O)NC(Cc1c[nH]c2ccccc12)C(=O)NCC(=O)NCC(=O)NC(C)C(=O)NC(CCC(N)=O)C(=O)NC(CCCCN)C(=O)NC(C)C(=O)NC(CCCNC(=N)N)C(=O)NC(CCCCN)C(N)=O (stereo unspecified) (Ac-CSSWPSWHSWGGAQKARK-NH2; configuration not given here)
inactive: [1] 18.9 µM | [2] > 50 µM | [3] 17.7 µM | [4] > 50 µM | [5] 14.4 µM | [6] 13.9 µM | [7] > 50 µM | [8] > 50 µM | [9] 42.6 µM | [10] > 50 µM | [11] 11.8 µM | [12] 17.1 µM | [13] 28.3 µM | [14] 29.8 µM | [15] > 50 µM | [16] 14.8 µM | [17] 12.4 µM | [18] > 50 µM | [19] 23.4 µM

C=C(C)[C@@H]1CC[C@@]2(C)[C@H]1[C@H]1CCC3[C@@]4(C)CC[C@H](O)C(C)(C)[C@@H]4CC[C@@]3(C)[C@]1(C)C[C@@H]2O (stereo partly specified) [CALENDULADIOL]
inactive: [1] 22.8 µM | [2] 56.9 µM | [3] 19.2 µM | [5] > 100 µM | [6] 27.3 µM | [7] 60.3 µM | [8] 92.3 µM | [9] 41.3 µM | [10] 52.1 µM | [11] 28.4 µM | [12] 67 µM | [13] 33.7 µM | [14] 11.2 µM | [15] 39.4 µM | [16] > 100 µM | [17] 19.5 µM | [18] 11.1 µM | [19] 41.9 µM
